≈ marks a conversion by molar mass, not a printed value.
Experiments:
Helicobacter pylori [1] = assay: Antibacterial activity against Helicobacter pyroli 159 assessed as inhibition of bacterial growth incubated for 48 hrs; format: functional
HepG2 = assay: Cytotoxicity against human HepG2 cells assessed as reduction in cell viability by MTT assay; format: functional, cell-based
MCF7 = assay: Cytotoxicity against human MCF7 cells assessed as reduction in cell viability by MTT assay; format: functional, cell-based
A549 = assay: Cytotoxicity against human A549 cells assessed as reduction in cell viability by MTT assay; format: functional, cell-based
HCT-116 = assay: Cytotoxicity against human HCT-116 cells assessed as reduction in cell viability by MTT assay; format: functional, cell-based
RAW264.7 = assay: Antiinflammatory activity against mouse RAW264.7 cells assessed as inhibition of LPS induced NO production preincubated for 30 mins followed by LPS addition measured after 48 hrs by griess reagent based assay; format: functional, cell-based
Helicobacter pylori [2] = assay: Antibacterial activity against Helicobacter pyroli G27 assessed as inhibition of bacterial growth incubated for 48 hrs; format: functional
Staphylococcus aureus = assay: Antibacterial activity against Staphylococcus aureus ATCC25923 assessed as inhibition of bacterial growth incubated for 48 hrs; format: functional

MIC (Helicobacter pylori [1])	IC50 (RAW264.7)	MIC (Helicobacter pylori [2])	MIC (Staphylococcus aureus)	SMILES	IC50 (HepG2)	IC50 (MCF7)	IC50 (A549)	IC50 (HCT-116)
32 µg/mL (≈ 89.8 µM)	–	–	–	COc1cccc2c1[C@H](O)[C@]13C=C[C@]4(O)CC(C)=CC(=O)[C@@H]4[C@]1(O3)[C@H]2O	> 20 µM	> 20 µM	> 20 µM	> 20 µM
32 µg/mL (≈ 90.3 µM)	28 µM	–	–	COc1cccc2c1[C@H](O)[C@]13C=C[C@]4(O)CC(C)=CC(=O)[C@@H]4[C@]1(O3)C2=O	> 20 µM	> 20 µM	> 20 µM	> 20 µM
16 µg/mL (≈ 35.4 µM)	–	16 µg/mL (≈ 35.4 µM)	16 µg/mL (≈ 35.4 µM)	Cc1cc(O[C@H]2O[C@@H](C)[C@H](O)[C@@H](O)[C@H]2O)c2c3c(ccc2c1)C(=O)c1c(O)cccc1[C@@H]3O	> 20 µM	> 20 µM	> 20 µM	> 20 µM
